Molecules are shown by their SMILES.

The text below walks through data of publication PMC12040169 (PLOS Biology, 2025).

One data set is described as follows: in vitro. Particulars: human, hela cells, % viability.
Consider `O=C(NCc1ccccn1)c1ccc(NS(=O)(=O)c2cccc(Cl)c2)cc1` [CBK267249], for which the viability at 28.5 h, 10 µM was found to be 111%.

Turning to `O=C(O)CC1(CC(=O)N2CCN(C(c3ccccc3)c3ccccc3)CC2)CCCC1` [CBK086174], the viability at 28.5 h, 10 µM was found to be 98.7%.

Turning to `COCCn1c(=O)n(Cc2ccccc2F)c2cccnc21` [CBK283965], the viability at 28.5 h, 10 µM is 88.6%.

Turning to `CN(C)c1nc(N2CCOCC2)c(C#N)c(=O)o1` [CBK007447], the viability at 28.5 h, 10 µM came out at 116%.

With `COc1cncc(-c2cc(NCc3cc(OC)c(OC)c(OC)c3)ncn2)c1` [CBK091183], the viability at 28.5 h, 10 µM came out at 88.4%.

Turning to `CCNc1cc2ccccc2c(-c2cc(C(C)C)ccc2OC)n1` [CBK073777], the viability at 28.5 h, 10 µM was determined as 110%.

`COc1ccc(N(CC(=O)Nc2c(F)cccc2F)S(=O)(=O)c2ccccc2)cc1` [CBK266883]: the viability at 28.5 h, 10 µM stood at 95.2%.

Turning to `COc1ccc(/C=C(\C)C(=O)Nc2cccc(N3CCNCC3)c2)cc1OC` [CBK034115T], the viability at 28.5 h, 10 µM was 90.1%.

Consider `CN(C)c1ccnc2sc(C(N)=O)c(N)c12` [CBK061708], for which the viability at 28.5 h, 10 µM amounted to 94%.

`Cc1nccn1CC1(O)CCN(C(=O)CCc2ccccc2F)CC1` [CBK284689]: the viability at 28.5 h, 10 µM was found to be 96.6%.

On to `CCC(CN1CCCC1)NC(=O)Cc1c(C)[nH]c2ccc(F)cc12` (centres unmarked) [CBK282751], for which the viability at 28.5 h, 10 µM came to 76.4%.

In the case of `CCN1CCC2(CC1)CN(CC(N)=O)c1ccccc12` [CBK126798], the viability at 28.5 h, 10 µM was 80.4%.

For the molecule `Cc1ccc(S(=O)(=O)NC(C)(C)CSc2nnc[nH]2)cc1` [CBK268374], the viability at 28.5 h, 10 µM is 81.5%.

Turning to `CCOc1ccc(OC(=O)C2CCN(C(=O)CC(C)C)CC2)cc1` [CBK154228], the viability at 28.5 h, 10 µM is 95.3%.

In the case of `O=C(CCOc1ccccc1)Nc1cc(N2CCNCC2)ncn1` [CBK004225T], the viability at 28.5 h, 10 µM was 98.6%.

With `Cc1cnc2[nH]c(C3CC3)c(CN3CC(C)OC(C)C3)c2c1` (centres unmarked) [CBK284741], the viability at 28.5 h, 10 µM was determined as 91.8%.

Take `CC(C)Nc1nccnc1OCc1ccsc1` [CBK115646]: the viability at 28.5 h, 10 µM is 103%.

`CCOc1ccc(CN(C)CC(=O)Nc2cc(C)no2)cc1` [CBK305605]: the viability at 28.5 h, 10 µM is 79.8%.

Turning to `CC1=CC(C)C(=S)NC(C)=C1` (centres unmarked) [CBK022735], the viability at 28.5 h, 10 µM is 91%.

As to `CC1CC(C)CN(CCCNC(=O)c2cc(C(C)C)nn2C)C1` (centres unmarked) [CBK282665], the viability at 28.5 h, 10 µM came to 106%.

Regarding `O=S(=O)(Cc1ccc(Cl)cc1Cl)N1CCOCC1` [CBK058967], the viability at 28.5 h, 10 µM came to 78.1%.

Consider `Cn1cc(-c2nccnc2OCc2ccccn2)cn1` [CBK107067], for which the viability at 28.5 h, 10 µM came to 97.2%.

In the case of `O=c1nc(-c2ccccc2Cl)oc2ccccc12` [CBK152263], the viability at 28.5 h, 10 µM is 89.9%.

Consider `CN(C)CCNc1ccc(-c2nnc(O)c3ccccc23)cc1[N+](=O)[O-]` [CBK266143], for which the viability at 28.5 h, 10 µM was 111%.

Consider `Cc1cccc(-c2csc3c(=O)[nH]c(N4CCC(C(=O)NCCN5CCOCC5)CC4)nc23)c1` [CBK215640], for which the viability at 28.5 h, 10 µM turned out to be 105%.

With `CCCOc1ccccc1-c1nnc(SCCC(=O)O)[nH]1` [CBK267182], the viability at 28.5 h, 10 µM was 93.9%.

On to `O=C(CCCCCN1C(=O)CCC1=O)Nc1nc[nH]n1` [CBK267682], for which the viability at 28.5 h, 10 µM worked out at 103%.

`CN(C)Cc1cc(C(C)(C)C)cc(CN(C)C)c1O` [CBK266994]: the viability at 28.5 h, 10 µM worked out at 98.4%.

Regarding `COc1ccc(NC(=O)c2cn(C)nc2CC2CCN(CCc3ccccc3)CC2)cc1` [CBK285559], the viability at 28.5 h, 10 µM is 90.9%.

In the case of `C[C@H](Nc1cncc(-c2ccccc2CO)n1)c1ccccc1` [CBK065520], the viability at 28.5 h, 10 µM was 116%.

`O=C(NC1CCCC1)c1ccc2ncccc2c1` [CBK200118]: the viability at 28.5 h, 10 µM amounted to 90.2%.

Turning to `O=C(COc1ccc(S(=O)(=O)N2CCCCC2)cc1)NCc1ccccn1` [CBK268517], the viability at 28.5 h, 10 µM turned out to be 91.6%.

As for `CC(=O)Nc1cccc(NC(=O)c2cnc3sc(C)cn3c2=O)c1` [CBK287715], the viability at 28.5 h, 10 µM turned out to be 92%.

In the case of `CCCC(=O)Nc1ccc(C(=O)N2CCN(CC)CC2)cc1` [CBK304218], the viability at 28.5 h, 10 µM stood at 88.6%.

For `COC(=O)c1ccccc1NC(=O)CC1Nc2ccccc2NC1=O` (centres unmarked) [CBK269276A], the viability at 28.5 h, 10 µM was determined as 91.9%.

As for `Cc1ccc(NC(=O)Cn2nc(C)c([N+](=O)[O-])c2C)cc1Cl` [CBK268336], the viability at 28.5 h, 10 µM was 98.5%.

With `CCN(CC(=O)NCc1ccccn1)S(=O)(=O)c1ccccc1` [CBK269546], the viability at 28.5 h, 10 µM was determined as 90.2%.

For the molecule `Cc1nn(C)c(C)c1CN(C(=O)c1ccc(C)n(C)c1=O)C1CC1` [CBK281450], the viability at 28.5 h, 10 µM came to 105%.

`COCCCN1C(=O)C(O)=C(C(=O)c2ccc(C)o2)C1c1ccc(Br)cc1` (centres unmarked) [CBK264876]: the viability at 28.5 h, 10 µM amounted to 90.9%.

For `Cc1cc(NS(=O)(=O)c2ccc(NC(=O)c3cc(-c4ccc(C)o4)nc4ccccc34)cc2)nc(C)n1` [CBK262628], the viability at 28.5 h, 10 µM was 93.9%.

As to `O=C(Nc1cccc(-c2noc(Cc3ccccc3)n2)c1)c1cccs1` [CBK270244], the viability at 28.5 h, 10 µM is 101%.

On to `O=C(c1cccnc1)N1CCN(Cc2cccc([N+](=O)[O-])c2)CC1` [CBK263020], for which the viability at 28.5 h, 10 µM stood at 114%.

Regarding `O=C(NC1CCCC1)c1ccc(-c2cnc3[nH]c(=O)n(Cc4ccc(Cl)cc4)c3n2)cc1` [CBK065039], the viability at 28.5 h, 10 µM was 94.7%.

Turning to `O=C(O)CNC(=O)CNC(=O)Cn1c(-c2ccccc2)cc2ccccc21` [CBK286550], the viability at 28.5 h, 10 µM worked out at 89.1%.

`CC(C)OC(=O)c1cc2n(n1)C(C(F)(F)F)CC(c1cccs1)N2` (centres unmarked) [CBK307176]: the viability at 28.5 h, 10 µM came out at 87.6%.

In the case of `CCN(CC)CCN1CCN(c2cc(-c3cc(C(F)(F)F)cc(C(F)(F)F)c3)ncn2)CC1` [CBK091195], the viability at 28.5 h, 10 µM came to 94%.

For `O=C(CN1CCC(c2cccc(Cc3cccc(F)c3)n2)CC1)Nc1nccs1` [CBK286090], the viability at 28.5 h, 10 µM turned out to be 91.8%.

Take `Cc1ccc2cc(CN(CC(C)C)S(C)(=O)=O)c(O)nc2c1` [CBK269593]: the viability at 28.5 h, 10 µM is 101%.

For the molecule `O=S(=O)(NCCCN1CCN(Cc2ccccc2)CC1)c1cccc(Cl)c1Cl` [CBK074655], the viability at 28.5 h, 10 µM was determined as 114%.

As for `COc1ccc(F)c(CN(CC(C)(C)CN)C(=O)Nc2ccc(C(C)(C)C)cc2)c1` [CBK002461C], the viability at 28.5 h, 10 µM amounted to 94%.

Turning to `CC(C)c1ccc(S(=O)(=O)Nc2ccc3[nH]c(C(F)(F)F)nc3c2)cc1` [CBK044470], the viability at 28.5 h, 10 µM was 90.3%.

Consider `CC(C)NC(=O)N[C@H]1CCN2C(=O)N(c3cccc4nsnc34)C(=O)[C@@H]2C1` [CBK289539], for which the viability at 28.5 h, 10 µM was found to be 111%.

In the case of `O=C(O)CCC(=O)Nc1nc(-c2ccccc2)cs1` [CBK286947], the viability at 28.5 h, 10 µM was 109%.

As to `O=C(NCc1nnc(-c2cccs2)o1)C1(c2cccc(F)c2)CC1` [CBK284639], the viability at 28.5 h, 10 µM is 90.2%.

Take `Cn1c(=O)n(CC(=O)NC2(C)C3CCC(C3)C2(C)C)c2cccnc21` (centres unmarked) [CBK283330]: the viability at 28.5 h, 10 µM stood at 84.9%.

Take `CC(=O)c1ccc(-c2cc(C(=O)NCCc3cccnc3)cnc2-c2ccc(F)cc2)s1` [CBK036614]: the viability at 28.5 h, 10 µM came to 102%.

Consider `COc1cc(CN2CCCC3(CCN(C(=O)c4cc(F)c(F)cc4F)C3)C2)cc(OC)c1OC` (centres unmarked) [CBK131988], for which the viability at 28.5 h, 10 µM was 101%.

In the case of `N#C/C(=C/c1ccc(-c2cc(C(=O)O)cc(C(=O)O)c2)o1)c1nc2ccccc2s1` [CBK266754], the viability at 28.5 h, 10 µM was 103%.

Regarding `Cc1ccc(Cn2nc(C)c(C(=O)OCc3cc(=O)n4ccccc4n3)c2Cl)cc1` [CBK297550], the viability at 28.5 h, 10 µM stood at 85.8%.

On to `CCc1ccc(CNC2CCN(Cc3cscn3)CC2)o1` [CBK305104], for which the viability at 28.5 h, 10 µM is 92.7%.

As for `Cn1c(N2CCCC(C(N)=O)C2)nc2ccccc21` (centres unmarked) [CBK282372], the viability at 28.5 h, 10 µM was determined as 105%.

For the molecule `Cc1nc2ccc(C(=O)NC3=NN(c4ccccc4)C(=O)C3)cn2c1N(C)C(=O)CCc1ccccc1` [CBK146817], the viability at 28.5 h, 10 µM is 89.8%.

Regarding `CN(CC1CCCN(C(=O)Nc2cccc(Cl)c2)C1)C(=O)OC(C)(C)C` (centres unmarked) [CBK305597], the viability at 28.5 h, 10 µM stood at 94.2%.

On to `Cc1c2c(nn1C)CSc1ccccc1C2=O` [CBK006517], for which the viability at 28.5 h, 10 µM came out at 92.8%.

For the molecule `O=C(COc1ccccc1)Nc1nccs1` [CBK058018], the viability at 28.5 h, 10 µM came out at 93.4%.

Turning to `O=S(=O)(Nc1cccc(Cl)c1Cl)c1ccc(Cl)c(Cl)c1` [CBK017446], the viability at 28.5 h, 10 µM worked out at 79.2%.

As for `CCN(Cc1ccccc1)C(=O)Nc1ccc2c(c1)OCCO2` [CBK155231], the viability at 28.5 h, 10 µM came to 100%.

`S=c1[nH]cnc2scc(-c3ccc(Cl)cc3)c12` [CBK094069]: the viability at 28.5 h, 10 µM is 76.5%.

On to `Cc1cccnc1NC(=O)c1c(O)c2ccccc2n(C)c1=O` [CBK261431], for which the viability at 28.5 h, 10 µM is 96%.

In the case of `CCC(=O)N1CCC(NCc2ccc(OCC(N)=O)cc2)C(C)C1` (centres unmarked) [CBK303989], the viability at 28.5 h, 10 µM came out at 77.6%.

For the molecule `Cc1nn(C)cc1-c1cncn1Cc1cccc(OC(C)C)c1` [CBK281484], the viability at 28.5 h, 10 µM was 95.3%.

For the molecule `Cc1nc(-c2ccccc2)sc1C(=O)C1=C(O)C(=O)N(CCN(C)C)C1c1ccccc1` (centres unmarked) [CBK266415], the viability at 28.5 h, 10 µM stood at 100%.

Consider `CN(C(=O)c1ccccc1)[C@]1(C)C2CC(C[C@@H]2O)C1(C)C` (some centres unmarked) [CBK010498], for which the viability at 28.5 h, 10 µM was 102%.

For `O=[N+]([O-])c1cnc(NS(=O)(=O)c2ccccc2Br)s1` [CBK067539], the viability at 28.5 h, 10 µM turned out to be 96.2%.

For the molecule `c1ccc(COc2ccc3[nH]c4c(c3c2)CCNC42CCN(Cc3ccccc3-c3ccccc3)C2)cc1` (centres unmarked) [CBK039909], the viability at 28.5 h, 10 µM stood at 73.9%.

Regarding `NC(=S)c1ccc2c(c1)OCO2` [CBK022803], the viability at 28.5 h, 10 µM was 86.3%.

As to `CS(=O)(=O)NC1CCN(CCc2ccc(F)c(F)c2)C1` (centres unmarked) [CBK305078], the viability at 28.5 h, 10 µM worked out at 95.3%.

On to `O=C(CCCn1cc([N+](=O)[O-])cn1)Nc1cc(C(F)(F)F)ccc1Cl` [CBK293987], for which the viability at 28.5 h, 10 µM turned out to be 108%.

Staying with this data set, now noted: human, hela cells, % viability, bulk resorufin, single well.
With `O=C(NN=C1CCCCC1)C(O)(c1ccccc1)c1ccccc1` [CBK261783], the viability at 28.5 h, 10 µM was 91.1%.

Consider `CCOC(=O)N1CCC2(CC1)Oc1ccc(Cl)cc1O2` [CBK084590], for which the viability at 28.5 h, 10 µM was found to be 94.2%.
